{
  "source": "patent US20240207216A1",
  "about": "“COMPOSITIONS AND METHOD FOR TREATING GUT PERMEABILITY CAUSED BY HYDROGEN SULFIDE PRODUCING BACTERIA” (UNM RAINFOREST INNOVATIONS, priority 2022, published 2024)",
  "type_in_all_cases": "cell-based, murine",
  "key": {"TNF-α": {"tested_on": "TNF-α", "experiment": "DSV-induced cellular TNF-α expression, Western blot in RAW cells", "settings": "1 h before DSV 4 h, DSV alone 37.01±4.28", "method": "(§1) RAW 264.7 murine macrophage-like cells were grown in DMEM+10% FBS without any use of antibiotics or antimycotics. Cells were grown at 37° C. in a humidified incubator with 5% CO2. Prior to the day of infection, 8×10^5 cells were plated in a six-well plate and infected with DSV at multiplicity of infection 20 (MOI 20) for various times. For drug treatments, cells were incubated with LY294002 at 10 μM or 50 μM for one hour followed by DSV infection for 30 minutes or four hours. For TL2-C29 treatment, cells were incubated with the inhibitor at 200 μM for three hours followed by infection with DSV for four hours.\n(§2) Cells were lysed in Lysis buffer containing protease and phosphatase inhibitors (Thermo Fisher Scientific, Inc., Waltham, MA) for 20 minutes at 4° C. Lysates were centrifuged at 12,000 rpm for five mins at 4° C. and supernatants were collected. Protein concentration in the supernatants was determined with Bradford reagent (Bio-Rad Laboratories, Inc., Hercules, CA). 50 μg of protein samples were run on SDS-PAGE (4-20% tris-glycine) and transferred to nitrocellulose membranes. Membranes were blocked in 5% milk in PBS-T (0.1% Tween 20) for 30 minutes followed by overnight incubation in primary antibodies in cold room. All antibodies except iNOS were purchased from Cell Signaling Technology (Danvers, MA): Actin (4970), p-AktS473(4060), p-Akt T308(13038), Akt (9272), p-P70S6K (9205), P70S6K (2708, TNF-α (19948). iNOS antibody was purchased from Abcam (Cambridge United Kingdom). Antibodies were diluted as recommended by the manufacturer. The following day, blots were washed with PBS-T and incubated with secondary antibodies (Cell Signaling Technology, Danvers, MA) at room temperature for one hour (dilution of 1:2000) and developed using enhanced chemiluminescence HRP signal (Thermo Fisher Scientific, Inc., Waltham, MA).\n(§3) All graphs were generated using PRISM 9.4.1 GraphPad Software Inc., San Diego, CA). Data is plotted as Mean±SEM relative to control. Each experiment was conducted at least three independent times. […]"}, "p-p65 NF-κB": {"tested_on": "p-p65 NF-κB", "experiment": "DSV-induced phospho-p65 NF-κB, Western blot in RAW cells", "settings": "50 μM pre-treatment, DSV 30 minutes; DSV alone 3.54±0.59", "method": "FIG. 13. LY294002 inhibits DSV-induced activation of PI3K/Akt/TNF pathway. (A) Quantification of secreted TNF-α. (B) Cells were treated with LY at either 10 μM or 50 μM for one hour before infection with DSV for four hours. Protein lysate was analyzed for iNOS expression. (C) Cells were pretreated with or without LY 50 μM followed by infection with DSV for 30 minutes and protein samples were analyzed for p-p65 NF-κB and total NF-κB. (D) Blots were quantified by analyzing the ratio of p-NF-κB/NF-κB. Values were normalized and compared to control. Data represents Mean±SEM from at least three independent experiments. Values were normalized to control. One-way ANOVA was used to determine the statistical significance. Values were compared to DSV, with a post-hoc Dunnett's test. *p<0.05, **p<0.01, ***p<0.001.\nRAW 264.7 murine macrophage-like cells were grown in DMEM+10% FBS without any use of antibiotics or antimycotics. Cells were grown at 37° C. in a humidified incubator with 5% CO2. […]\nCells were lysed in Lysis buffer containing protease and phosphatase inhibitors (Thermo Fisher Scientific, Inc., Waltham, MA) for 20 minutes at 4° C. […] Protein concentration in the supernatants was determined with Bradford reagent (Bio-Rad Laboratories, Inc., Hercules, CA). […]"}, "p-p70S6K": {"tested_on": "p-p70S6K", "experiment": "DSV-induced p-P70S6K, Western blot in RAW cells", "settings": "1 h before DSV 4 h, DSV alone 1.96±0.20", "method": "as §1\n(§4) Cells were lysed in Lysis buffer containing protease and phosphatase inhibitors (Thermo Fisher Scientific, Inc., Waltham, MA) for 20 minutes at 4° C. Lysates were centrifuged at 12,000 rpm for five mins at 4° C. and supernatants were collected. Protein concentration in the supernatants was determined with Bradford reagent (Bio-Rad Laboratories, Inc., Hercules, CA). 50 μg of protein samples were run on SDS-PAGE (4-20% tris-glycine) and transferred to nitrocellulose membranes. Membranes were blocked in 5% milk in PBS-T (0.1% Tween 20) for 30 minutes followed by overnight incubation in primary antibodies in cold room. […]"}, "p-Akt/Akt": {"tested_on": "p-Akt/Akt", "experiment": "DSV-induced Akt phosphorylation, Western blot in RAW cells", "settings": "1 h before DSV 4 h, DSV alone 4.88±1.31", "method": "as §1, §2, §3"}, "secreted TNF-α": {"tested_on": "secreted TNF-α", "experiment": "DSV-induced secreted TNF-α, Western blot of RAW cell culture supernatant", "settings": "1 h before DSV 4 h, DSV alone 18.73±6.21", "method": "FIG. 12. LY294002 inhibits DSV-induced activation of PI3K/Akt/TNF pathway. (A) RAW cells were treated with LY at either 10 μM or 50 μM for one hour before infection with DSV for four hours. Cells were lysed and protein lysate was prepared. Fifty μg of protein lysate was separated on SDS-PAGE and analyzed for p-Akt, Akt, TNF, iNOS, p-p70S6K, and total p70S6K by Western blotting. Actin was used as a loading control. (B) Quantification of p-Akt-Akt Western blot. (C) Quantification of p-P70/P70 Western blot. (D) Quantification of TNF-α/actin Western blot. (E) Post-infection, RAW cell culture supernatant was collected and proteins were precipitated using ethanol precipitation. Proteins were resuspended in PBS and 50 μg of proteins were loaded on SDS-PAGE and secreted TNF-α was detected using TNF-α antibody. Actin was used as a loading control.\nas §1, §4"}, "iNOS": {"tested_on": "iNOS", "experiment": "DSV-induced iNOS expression, Western blot in RAW cells", "settings": "1 h before DSV 4 h, DSV alone 23.54±5.39", "method": "as §1, §2, §3"}},
  "data": [
    {"smiles": "O=c1cc(N2CCOCC2)oc2c(-c3ccccc3)cccc12", "note": "[LY294002]", "values": [
      {"measurement": "cellular TNF-α/actin, normalized to control", "setting": "TNF-α; 10 μM", "value": "13.42±2.13"},
      {"measurement": "cellular TNF-α/actin, normalized to control", "setting": "TNF-α; 50 μM", "value": "6.044±2.139"},
      {"measurement": "p-NF-κB/NF-κB (p-p65), normalized to control", "setting": "p-p65 NF-κB", "value": "1.91±0.54"},
      {"measurement": "p-P70/P70, normalized to control", "setting": "p-p70S6K; 10 μM", "value": "0.081±0.026"},
      {"measurement": "p-P70/P70, normalized to control", "setting": "p-p70S6K; 50 μM", "value": "0.088±0.029"},
      {"measurement": "p-Akt/Akt, normalized to control", "setting": "p-Akt/Akt; 10 μM", "value": "0.52±0.11"},
      {"measurement": "p-Akt/Akt, normalized to control", "setting": "p-Akt/Akt; 50 μM", "value": "0.40±0.09"},
      {"measurement": "secreted TNF-α, normalized to control", "setting": "secreted TNF-α; 10 μM", "value": "1.45±0.24"},
      {"measurement": "secreted TNF-α, normalized to control", "setting": "secreted TNF-α; 50 μM", "value": "1.34±0.57"},
      {"measurement": "iNOS expression, normalized to control", "setting": "iNOS; 10 μM", "value": "5.45±0.17"},
      {"measurement": "iNOS expression, normalized to control", "setting": "iNOS; 50 μM", "value": "2.28±0.58"}
    ]}
  ]
}
